{"source": "patent US6617355B1", "about": "“Treating asthma by preventing and/or accomodating S-nitrosothiol breakdown” (The University of Virginia Patent Foundation, priority 1997, dated 2003)", "key": {"[1]": {"tested_on": "patient with severe asthma", "assay": "Treatment of patients with severe asthma or respiratory failure (Examples I-IX)", "format": "in vivo, human", "experimental": "A child with severe asthma developing symptoms of dyspnea, tachypnea, wheezing and cough is administered a 50 mM solution of L-gamma-glutamyl-(o-carboxy)phenylhydrazide as an aerosol via inhalation at a dosage of 0.01 ml/kg.\nA person with severe asthma with symptoms of dyspnea on exertion, cough and prolonged expiration is administered a 10 mM solution of bathocuproine disulfonate via inhalation as an aerosol at a dose of 0.01 ml/kg.\nA person with severe asthma with chronic symptoms of night-time cough, dyspnea and wheezing is maintained on inhalations of an aerosol of a 10 mM solution of each of S-nitrosoglutathione and aurothioglucose, at a dosage of 0.01 ml/kg.\nA child with severe asthma and impending respiratory failure with symptoms of wheezing, cough and cyanosis is given terbutaline (5 μg/kg/min) by continuous IV-infusion. […] The terbutaline is replaced with an equimolar amount of terbutaline substituted with S-nitrosothiol group.\nA person has respiratory failure with symptoms of wheezing, cough and cyanosis.\nA person with respiratory failure with symptoms as described in Example V is given inhalation of a 10 mmol solution of S-nitroso-D-cysteine, 0.01 ml/kg.\nA severe asthmatic with chronic dyspnea is given 30 mg daily prednisone.\nA severe asthmatic is treated with inhalation of 1 mg allopurinol.\nA severe asthmatic is treated with inhalation of a 10 mM solution of each of S-nitrosomethylmercaptan and ethacrynic acid, at a dosage of 0.01 ml/kg."}, "[2]": {"tested_on": "patients with mild or moderate asthma", "assay": "Treatment of patients with mild or moderate asthma (Examples X-XI)", "format": "in vivo, human", "experimental": "A child wakes up every night coughing and coughs on exertion. The patient is given inhalations of 0.01 ml/kg of a 10 mM solution of S-nitroso-D-cysteine."}, "[3]": {"tested_on": "Guinea-pig tracheal rings", "assay": "Relaxation of methacholine-contracted guinea-pig tracheal rings by S-nitrosoglutathione pre-incubated with or without lung fractions", "format": "cell-based", "settings": "n=7", "experimental": "Guinea-pig tracheal and lung parenchymal tissue were separately homogenized in 1 mM ethylenediaminetetraacetic acid, 50 mM TRIS HC1 buffer, pH 7.4, 10 mg/liter soybean trypsin inhibitor, 10 mg/liter pepstatin, 10 mg/liter chymostatin and 100 mg/liter phenylmethylsulfonyl fluoride at 4° C. and underwent centrifugation (5,000 g; 5 min) and filtration. The supernatant was loaded onto a DEAE cellulose column and eluted with a linear gradient of 0-250 mM NaCl. The S-nitrosoglutathione degrading activity was assayed as NO evolution. The results are depicted in FIG. 1 (fractions causing a net loss of NO are represented by diamonds).\nGuinea-pig tracheal rings were suspended in Krebs-Henseleit buffer (pH 7.4, 37 degrees C., equilibrated with 95% oxygen/5% carbon dioxide) and equilibrated under one gram tension. Smooth muscle contraction was monitored using a force transducer. After contraction with 5 μM methacholine, rings were exposed to S-nitrosoglutathione which had been incubated (30 minutes, pH 7.4, 25 degrees C.) (a) in phosphate buffered saline alone, (b) with guinea-pig lung protein fractions having S-nitroglutathione breakdown activity isolated as described in Background Example 2, and (c) with active lung fractions and 100 μM aurothioglucose. […]"}}}
{"smiles": "NC(CCC(=O)NNc1ccccc1C(=O)O)C(=O)O", "note": "[L-gamma-glutamyl-(o-carboxy)phenylhydrazide]", "values": [{"measurement": "asthma symptoms", "setting": "[1]; Example I: child, severe asthma, 50 mM solution as aerosol via inhalation, 0.01 ml/kg", "value": "symptoms improve"}]}
{"smiles": "N[C@H](CSN=O)C(=O)O", "note": "[S-nitroso-D-cysteine]", "values": [{"measurement": "asthma symptoms", "setting": "[1]; Example VI: person, respiratory failure, inhalation of 10 mmol solution, 0.01 ml/kg", "value": "Improvement occurs"}, {"measurement": "asthma symptoms", "setting": "[2]; Example X: child, night cough and cough on exertion, inhalations of 0.01 ml/kg of 10 mM solution", "value": "sleeps through the night and is able to participate in sports without shortness of breath"}]}
{"smiles": "N[C@@H](CCC(=O)N[C@@H](CSN=O)C(=O)NCC(=O)O)C(=O)O", "note": "[S-nitrosoglutathione]", "values": [{"measurement": "relaxation of tracheal rings by S-nitrosoglutathione after incubation with active lung fractions", "setting": "[3]; rings contracted with 5 μM methacholine, S-nitrosoglutathione incubated 30 minutes, pH 7.4, 25 degrees C with guinea-pig lung protein fractions, p<0.005 for all concentrations >500 nM", "value": "relaxation was nearly completely inhibited"}]}
{"smiles": "N[C@H](C(=O)O)[C@@H]1CC(Cl)=NO1", "note": "[acivicin]", "values": [{"measurement": "asthma symptoms", "setting": "[1]; Example V: person, respiratory failure, parenteral methylprednisone 4 mg/kg and terbutaline 5 μg/kg/min, then nebulized acivicin 0.01 mmol/kg", "value": "symptoms improve"}, {"measurement": "asthma symptoms", "setting": "[2]; Example XI: person, wheezing and coughing three times a year, nebulized 0.01 mmol/kg", "value": "becomes asymptomatic"}]}
{"smiles": "Oc1ncnc2[nH]ncc12", "note": "[allopurinol]", "values": [{"measurement": "asthma symptoms", "setting": "[1]; Example VIII: severe asthmatic, inhalation of 1 mg", "value": "Symptoms improve"}]}
{"smiles": "OC[C@H]1O[C@H]([S-])[C@H](O)[C@@H](O)[C@@H]1O.[Au+]", "note": "[aurothioglucose]", "values": [{"measurement": "restoration of S-nitrosoglutathione relaxation by inhibitor of breakdown", "setting": "[3]; S-nitrosoglutathione incubated with active lung fractions and 100 μM aurothioglucose, p<0.001 at 50 μM", "value": "partially restored"}]}
{"smiles": "Cc1cc(-c2ccc(S(=O)(=O)O)cc2)c2ccc3c(-c4ccc(S(=O)(=O)O)cc4)cc(C)nc3c2n1", "note": "[bathocuproine disulfonate]", "values": [{"measurement": "asthma symptoms", "setting": "[1]; Example II: person, severe asthma, 10 mM solution via inhalation as aerosol, 0.01 ml/kg", "value": "symptoms improve"}]}
{"smiles": "CC(C)(C)NCC(O)c1cc(O)cc(O)c1", "note": "(stereo not shown) [terbutaline]", "values": [{"measurement": "asthma symptoms", "setting": "[1]; Example IV: child, severe asthma, impending respiratory failure, continuous IV-infusion 5 μg/kg/min or equimolar amount", "value": "No improvement occurs"}]}
